Results on 13 compounds are retold here after patent publication US20260256925A1, “INDAZOLE DERIVATIVES AS ESTROGEN RECEPTOR DEGRADERS” (REGENTS OF THE UNIVERSITY OF MICHIGAN, priority 2022, published 2026).

Molecules are shown by their SMILES. Some results are limits rather than exact numbers.

Experiment [1] is described as follows: Cell growth assay, WST-8 (compounds B1-B126). Conditions: 96 h; T47D cell line, WST-8, 4 days; read-out: Cell growth inhibition in T47D cell line IC50. The experiment is classed as cell-based. A digest of the protocol: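 Read-out is WST-8 absorbance at 450 nm (2.5 h, 37° C) as a fraction of vehicle control, from three separate repeats. Compound exposure lasted 4 days, starting one day after plating 1500 cells/well.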
In general terms: Formazan colour is commonly taken as a measure of viable cells.

Experiment [2] deals with T1, ER (Homo sapiens, UniProt P03372).
T1 construct: endogenous in cells; probably T47D or MCF-7
T1 sequence (P03372 1-595): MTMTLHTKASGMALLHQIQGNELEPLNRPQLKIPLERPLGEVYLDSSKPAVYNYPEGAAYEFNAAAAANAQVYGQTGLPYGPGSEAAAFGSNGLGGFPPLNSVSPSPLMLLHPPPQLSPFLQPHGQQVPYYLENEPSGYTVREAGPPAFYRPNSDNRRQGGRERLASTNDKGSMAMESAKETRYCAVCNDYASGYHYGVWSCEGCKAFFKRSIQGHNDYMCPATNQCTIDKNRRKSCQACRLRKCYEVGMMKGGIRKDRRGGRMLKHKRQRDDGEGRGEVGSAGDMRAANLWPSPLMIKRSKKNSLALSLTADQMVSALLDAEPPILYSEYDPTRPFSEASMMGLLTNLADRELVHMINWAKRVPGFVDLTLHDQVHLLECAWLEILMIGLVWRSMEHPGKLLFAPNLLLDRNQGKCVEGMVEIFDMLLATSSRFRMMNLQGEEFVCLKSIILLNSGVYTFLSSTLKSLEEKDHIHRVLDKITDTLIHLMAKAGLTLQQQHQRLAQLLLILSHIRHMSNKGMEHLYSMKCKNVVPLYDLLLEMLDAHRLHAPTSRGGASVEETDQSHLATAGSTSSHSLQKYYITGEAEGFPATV
Kind of experiment: In-cell western blot analysis, relative ER percentage (compounds B1-B126). The format is cell-based. Conditions: ER degradation, 16 hours, read-out: ICW DC50. A digest of the protocol: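 Readout was a two-colour infrared in-cell western of formaldehyde-fixed cells after 16 h compound exposure at 0.5% DMSO, with 40,000 or 10,000 cells/well plated the previous night. Relative ER percentage compares treated wells against untreated/DMSO-treated wells taken as 100%.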

In the case of `C[C@@H]1Cc2c(ccc3[nH]ncc23)[C@@H](c2ccc(N3CCC4(CCN(CC(=O)N5Cc6cc7c(cc6C5)C(=O)N(C5CCC(=O)NC5=O)C7=O)CC4)CC3)cn2)N1CC(F)(F)F` (stereo partly drawn) [Compound B48, 2-(2,6-dioxopiperidin-3-yl)-6-(2-(9-(6-((6S,8R)-8-methyl-7-(2,2,2-trifluoroethyl)-6,7,8,9-tetrahydro-3H-pyrazolo[4,3-f]isoquinolin-6-yl)pyridin-3-yl)-3,9-diazaspiro[5.5]undecan-3-yl)acetyl)-6,7-dihydropyrrolo[3,4-f]isoindole-1,3(2H,5H)-dione], the 50% inhibitory concentration (IC50) (commonly the concentration needed to halve the response being measured) in experiment [1] is greater than 10 nM. For the same compound, the DC50 (in general, the concentration at which degradation of the target reaches its halfway point) in experiment [2] is greater than 100 nM.
Regarding `C[C@@H]1Cc2c(ccc3[nH]ncc23)[C@@H](c2ccc(N3CCC4(CCN(C(=O)CN5Cc6cc7c(cc6C5)C(=O)N(C5CCC(=O)NC5=O)C7=O)CC4)CC3)cn2)N1CC(F)F` (stereo partly drawn) [Compound B49, 6-(2-(9-(6-((6S,8R)-7-(2,2-difluoroethyl)-8-methyl-6,7,8,9-tetrahydro-3H-pyrazolo[4,3-f]isoquinolin-6-yl)pyridin-3-yl)-3,9-diazaspiro[5.5]undecan-3-yl)-2-oxoethyl)-2-(2,6-dioxopiperidin-3-yl)-6,7-dihydropyrrolo[3,4-f]isoindole-1,3(2H,5H)-dione], in experiment [1], the IC50 was greater than 10 nM. For the same compound, the DC50 in experiment [2] fell in the range of 10 to 100 nM.
`COc1cc(N2CCC3(CCN(CC(=O)N4Cc5cc6c(cc5C4)C(=O)N(C4CCC(=O)NC4=O)C6=O)CC3)CC2)ccc1[C@@H]1c2ccc3[nH]ncc3c2C[C@@H](C)N1CC(F)F` (stereo partly drawn) [Compound B51, 6-(2-(9-(4-((6S,8R)-7-(2,2-difluoroethyl)-8-methyl-6,7,8,9-tetrahydro-3H-pyrazolo[4,3-f]isoquinolin-6-yl)-3-methoxyphenyl)-3,9-diazaspiro[5.5]undecan-3-yl)acetyl)-2-(2,6-dioxopiperidin-3-yl)-6,7-dihydropyrrolo[3,4-f]isoindole-1,3(2H,5H)-dione]: in experiment [1], the IC50 is greater than 10 nM. In addition, the DC50 in experiment [2] lay within 10 to 100 nM.
Take `C[C@@H]1Cc2c(ccc3[nH]ncc23)[C@@H](c2ccc(N3CCC(N4CC(N5CCN6c7cc8c(cc7OC[C@@H]6C5)C(=O)N(C5CCC(=O)NC5=O)C8)C4)CC3)cn2)N1CC(F)(F)F` (stereo partly drawn) [Compound B52, 3-((S)-3-(1-(1-(6-((6S,8R)-8-methyl-7-(2,2,2-trifluoroethyl)-6,7,8,9-tetrahydro-3H-pyrazolo[4,3-f]isoquinolin-6-yl)pyridin-3-yl)piperidin-4-yl)azetidin-3-yl)-8-oxo-1,2,3,4,4a,5,8,10-octahydro-9H-pyrazino[1′,2′:4,5][1,4]oxazino[2,3-f]isoindol-9-yl)piperidine-2,6-dione]: in experiment [1], the IC50 is less than 1 nM. In addition, the DC50 in experiment [2] was less than 10 nM.
Consider `COc1cc(N2CCC(N3CC(N4CCN5c6cc7c(cc6OC[C@@H]5C4)C(=O)N(C4CCC(=O)NC4=O)C7)C3)CC2)ccc1[C@@H]1c2ccc3[nH]ncc3c2C[C@@H](C)N1CC(F)F` (stereo partly drawn) [Compound B53, 3-((S)-3-(1-(1-(4-((6S,8R)-7-(2,2-difluoroethyl)-8-methyl-6,7,8,9-tetrahydro-3H-pyrazolo[4,3-f]isoquinolin-6-yl)-3-methoxyphenyl)piperidin-4-yl)azetidin-3-yl)-8-oxo-1,2,3,4,4a,5,8,10-octahydro-9H-pyrazino[1′,2′:4,5][1,4]oxazino[2,3-f]isoindol-9-yl)piperidine-2,6-dione], for which the IC50 in experiment [1] is less than 1 nM. Also, the DC50 in experiment [2] lay within 10 to 100 nM.
Turning to `COc1cc(N2CCC3(CC2)CC(CN2CCN4c5cc6c(cc5OC[C@@H]4C2)C(=O)N(C2CCC(=O)NC2=O)C6)C3)ccc1[C@@H]1c2ccc3[nH]ncc3c2C[C@@H](C)N1CC(F)F` (stereo partly drawn) [Compound B54, 3-((S)-3-((7-(4-((6S,8R)-7-(2,2-difluoroethyl)-8-methyl-6,7,8,9-tetrahydro-3H-pyrazolo[4,3-f]isoquinolin-6-yl)-3-methoxyphenyl)-7-azaspiro[3.5]nonan-2-yl)methyl)-8-oxo-1,2,3,4,4a,5,8,10-octahydro-9H-pyrazino[1′,2′:4,5][1,4]oxazino[2,3-f]isoindol-9-yl)piperidine-2,6-dione], the IC50 in experiment [1] is 1 to 10 nM. Besides, the half-maximal degradation concentration (DC50) in experiment [2] is less than 10 nM.
On the same counts, the results for `COc1cc(N2CCC3(CC2)CC(CN2CCN4c5cc6c(cc5OC[C@H]4C2)C(=O)N(C2CCC(=O)NC2=O)C6)C3)ccc1[C@@H]1c2ccc3[nH]ncc3c2C[C@@H](C)N1CC(F)F` (stereo partly drawn) [Compound B55, 3-((R)-3-((7-(4-((6S,8R)-7-(2,2-difluoroethyl)-8-methyl-6,7,8,9-tetrahydro-3H-pyrazolo[4,3-f]isoquinolin-6-yl)-3-methoxyphenyl)-7-azaspiro[3.5]nonan-2-yl)methyl)-8-oxo-1,2,3,4,4a,5,8,10-octahydro-9H-pyrazino[1′,2′:4,5][1,4]oxazino[2,3-f]isoindol-9-yl)piperidine-2,6-dione] are 1 to 10 nM and greater than 100 nM.
For the compound `C[C@@H]1Cc2c(ccc3[nH]ncc23)[C@@H](c2ccc(N3CC4(CCC(CN5CCC6(CC5)COc5c6ccc6c5CN(C5CCC(=O)NC5=O)C6=O)CC4)C3)cn2)N1CC(F)(F)F` (stereo partly drawn) [Compound B57, 3-(1′-((2-(6-((6S,8R)-8-mcthyl-7-(2,2,2-trifluoroethyl)-6,7,8,9-tetrahydro-3H-pyrazolo[4,3-f]isoquinolin-6-yl)pyridin-3-yl)-2-azaspiro[3.5]nonan-7-yl)methyl)-6-oxo-6,8-dihydro-2H,7H-spiro[furo[2,3-e]isoindole-3,4′-piperidin]-7-yl)piperidine-2,6-dione], the IC50 in experiment [1] is less than 1 nM. In addition, in experiment [2], the half-maximal degradation concentration (DC50) is less than 10 nM.
For `C[C@@H]1Cc2c(ccc3[nH]ncc23)[C@@H](c2ccc(N3CC4(CCC(CN5CCC6(CCOc7c6ccc6c7CN(C7CCC(=O)NC7=O)C6=O)CC5)CC4)C3)cn2)N1CC(F)(F)F` (stereo partly drawn) [Compound B58, 3-(1-((2-(6-((6S,8R)-8-methyl-7-(2,2,2-trifluoroethyl)-6,7,8,9-tetrahydro-3H-pyrazolo[4,3-f]isoquinolin-6-yl)pyridin-3-yl)-2-azaspiro[3.5]nonan-7-yl)methyl)-7′-oxo-2′,3′,7′,9′-tetrahydro-8′H-spiro[piperidine-4,4′-pyrano[2,3-e]isoindol]-8′-yl)piperidine-2,6-dione] the same measures were less than 1 nM and greater than 100 nM.
For the compound `C[C@@H]1Cc2c(ccc3[nH]ncc23)[C@@H](c2ccc(N3CC4(CCC(CN5CCN6c7cc8c(cc7N(C)C[C@@H]6C5)C(=O)N(C5CCC(=O)NC5=O)C8)CC4)C3)cn2)N1CC(F)(F)F` (stereo partly drawn) [Compound B59, 3-((S)-6-methyl-3-((2-(6-((6S,8R)-8-methyl-7-(2,2,2-trifluoroethyl)-6,7,8,9-tetrahydro-3H-pyrazolo[4,3-f]isoquinolin-6-yl)pyridin-3-yl)-2-azaspiro[3.5]nonan-7-yl)methyl)-8-oxo-2,3,4,4a,5,6,8,10-octahydropyrazino[1,2-a]pyrrolo[3,4-g]quinoxalin-9(1H)-yl)piperidine-2,6-dione], the IC50 in experiment [1] fell in the range of 1 to 10 nM. In addition, in experiment [2], the DC50 is less than 10 nM.
For `C[C@@H]1Cc2c(ccc3[nH]ncc23)[C@@H](c2ccc(N3CCC4(CC3)CC(CN3CCC5(CC3)COc3c5ccc5c3CN(C3CCC(=O)NC3=O)C5=O)C4)cn2)N1CC(F)(F)F` (stereo partly drawn) [Compound B60, 3-(1′-((7-(6-((6S,8R)-8-methyl-7-(2,2,2-trifluoroethyl)-6,7,8,9-tetrahydro-3H-pyrazolo[4,3-f]isoquinolin-6-yl)pyridin-3-yl)-7-azaspiro[3.5]nonan-2-yl)methyl)-6-oxo-6,8-dihydro-2H,7H-spiro[furo[2,3-e]isoindole-3,4′-piperidin]-7-yl)piperidine-2,6-dione] the same measures were less than 1 nM and less than 10 nM.
On the same counts, the results for `C[C@@H]1Cc2c(ccc3[nH]ncc23)[C@@H](c2ccc(N3CCC4(CC3)CC(CN3CCN5c6cc7c(cc6N(C)C[C@@H]5C3)C(=O)N(C3CCC(=O)NC3=O)C7)C4)cn2)N1CC(F)(F)F` (stereo partly drawn) [Compound B61, 3-((S)-6-methyl-3-((7-(6-((6S,8R)-8-methyl-7-(2,2,2-trifluoroethyl)-6,7,8,9-tetrahydro-3H-pyrazolo[4,3-f]isoquinolin-6-yl)pyridin-3-yl)-7-azaspiro[3.5]nonan-2-yl)methyl)-8-oxo-2,3,4,4a,5,6,8,10-octahydropyrazino[1,2-a]pyrrolo[3,4-g]quinoxalin-9(1H)-yl)piperidine-2,6-dione] are less than 1 nM and less than 10 nM.
With `C[C@@H]1Cc2c(ccc3[nH]ncc23)[C@@H](c2ccc(N3CCC(CN4CCC5(CC4)COc4c5ccc5c4CN(C4CCC(=O)NC4=O)C5=O)CC3)cn2)N1CC(F)(F)F` (stereo partly drawn) [Compound B62, 3-(1′-((1-(6-((6S,8R)-8-methyl-7-(2,2,2-trifluoroethyl)-6,7,8,9-tetrahydro-3H-pyrazolo[4,3-f]isoquinolin-6-yl)pyridin-3-yl)piperidin-4-yl)methyl)-6-oxo-6,8-dihydro-2H,7H-spiro[furo[2,3-e]isoindole-3,4′-piperidin]-7-yl)piperidine-2,6-dione], the IC50 in experiment [1] is less than 1 nM. In addition, the DC50 in experiment [2] is greater than 100 nM.
